Test: Adverse events and safety laboratory parameters; discontinuations
Format: in vivo, human
Details: 2 mg group, following 1 month of treatment
Procedure: The results presented herein were obtained from a multicentre, randomized, double-blind, placebo-controlled study. The compound TH9507 was administered by subcutaneous injection daily (1 or 2 mg dose) for a three-month period. Patients were of both genders, aged 50 years or older, with stable COPD as per the 1995 American Thoracic Society criteria.
Adverse events and safety laboratory parameters (haematology, biochemistry, urinalysis) were measured using standard laboratory methods.

With CC/C=C/CC(=O)N[C@@H](Cc1ccc(O)cc1)C(=O)N[C@@H](C)C(=O)N[C@@H](CC(=O)O)C(=O)N[C@@H](C)C(=O)N[C@H](C(=O)N[C@@H](Cc1ccccc1)C(=O)N[C@H](C(=O)N[C@@H](CC(N)=O)C(=O)N[C@@H](CO)C(=O)N[C@@H](Cc1ccc(O)cc1)C(=O)N[C@@H](CCCNC(=N)N)C(=O)N[C@@H](CCCCN)C(=O)N[C@H](C(=O)N[C@@H](CC(C)C)C(=O)NCC(=O)N[C@@H](CCC(N)=O)C(=O)N[C@@H](CC(C)C)C(=O)N[C@@H](CO)C(=O)N[C@@H](C)C(=O)N[C@@H](CCCNC(=N)N)C(=O)N[C@@H](CCCCN)C(=O)N[C@@H](CC(C)C)C(=O)N[C@@H](CC(C)C)C(=O)N[C@@H](CCC(N)=O)C(=O)N[C@@H](CC(=O)O)C(=O)N[C@H](C(=O)N[C@@H](CCSC)C(=O)N[C@@H](CO)C(=O)N[C@@H](CCCNC(=N)N)C(=O)N[C@@H](CCC(N)=O)C(=O)N[C@@H](CCC(N)=O)C(=O)NCC(=O)N[C@@H](CCC(=O)O)C(=O)N[C@@H](CO)C(=O)N[C@@H](CC(N)=O)C(=O)N[C@@H](CCC(N)=O)C(=O)N[C@@H](CCC(=O)O)C(=O)N[C@@H](CCCNC(=N)N)C(=O)NCC(=O)N[C@@H](C)C(=O)N[C@@H](CCCNC(=N)N)C(=O)N[C@@H](C)C(=O)N[C@@H](CCCNC(=N)N)C(=O)N[C@@H](CC(C)C)C(N)=O)[C@@H](C)CC)C(C)C)[C@@H](C)O)[C@@H](C)CC [TH9507, (hexenoyl trans-3)hGRF(1-44)NH2] the “Discontinuation possibly related to study drug” value was “one patient in the 2 mg group who showed elevated creatine phosphokinase (CPK) and serum glutamic oxaloacetic transaminase (SGOT) values”.
